The structures appear in SMILES notation. Some results are limits rather than exact numbers.

The assay deals with T1, human CXCR3 (N-delta 4) (Homo sapiens, UniProt P49682).
T1 construct: CD8 leader; Flag tag; expressed in transfected cells; membranes used
T1 sequence (P49682 5-368 limits assumed): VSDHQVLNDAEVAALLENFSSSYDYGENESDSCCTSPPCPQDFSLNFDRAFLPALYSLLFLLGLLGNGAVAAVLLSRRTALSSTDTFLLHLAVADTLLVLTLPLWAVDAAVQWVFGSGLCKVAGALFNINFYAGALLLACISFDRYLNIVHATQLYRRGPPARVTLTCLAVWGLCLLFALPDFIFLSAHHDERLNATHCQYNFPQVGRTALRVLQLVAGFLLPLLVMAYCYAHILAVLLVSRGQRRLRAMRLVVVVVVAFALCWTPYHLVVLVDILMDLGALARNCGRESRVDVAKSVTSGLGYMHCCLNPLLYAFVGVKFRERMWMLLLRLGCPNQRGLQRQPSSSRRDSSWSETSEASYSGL
Nature of the assay: Human CXCR3 (N-delta 4) scintillation proximity assay (SPA), [125I] IP-10 binding. The conditions noted are these: IC50 rating; Ba/F3-hCXCR3 (N-delta 4) membranes, 25 pM [125I] IP-10. In short, it runs like this:
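IP-10 and compound titrations added together. The receptor source was SPA beads bearing membranes from Ba/F3 cells transfected with human CXCR3 (N-delta 4) carrying a CD8 leader and Flag tag.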

Take `CC[C@H]1CN(c2ncc(CNS(=O)(=O)N(C)C)cc2Cl)CCN1C1CCN(Cc2ccc(Br)cc2F)CC1` [compound 384]: the concentration for half-maximal inhibition (IC50) was under 25 nM. Consider `N#Cc1ccc(CN2CCC(N3CCN(c4ncc(C(=O)NCc5ccc(C(F)(F)F)cc5)cc4Br)CC3)CC2)cc1` [compound 324], for which the IC50 lay within 25 to 100 nM. With `O=C(NCc1ccccc1)c1cnc(N2CCN(C3CCN(Cc4ccc(F)cc4)CC3)CC2)c(Cl)c1` [compound 5] the figure was over 100 nM; with `CC[C@H]1CN(c2ncc(C(=O)NC3CC3)cc2C)CCN1C1CCN(C(=O)c2ccc(Cl)cc2)CC1` [compound 461], under 25 nM; with `O=C(NCc1ccc(F)c(F)c1)c1cnc(N2CCN(C3CCN(C(=O)c4ccc(Cl)c(Cl)c4)CC3)CC2)c(Cl)c1` [compound 351], over 100 nM. Take `CC[C@H]1CN(c2ncc(C(=O)NC)cc2Cl)CCN1C1CCN(Cc2ccc(Br)cc2F)CC1` [compound 219]: the IC50 was under 25 nM. For `O=C(NCc1ccc(Cl)c(Cl)c1)c1cnc(N2CCN(C3CCN(Cc4ccc(Cl)cc4)CC3)CC2)c(Br)c1` [compound 279], the 50% inhibitory concentration (IC50) was 25 to 100 nM. Consider `C[C@@H]1CN(c2ncc(C(=O)NCc3ccc(F)c(F)c3)cc2Cl)CCN1C1CCN(Cc2ccc(Cl)cc2)CC1` [compound 254], for which the concentration for half-maximal inhibition (IC50) was under 25 nM. `CC1CN(C2CCN(Cc3ccc(Cl)cc3)CC2)CCN1c1ncc(C(=O)NCCOc2ccccc2)cc1Cl` (stereo not drawn) [compound 130] showed an IC50 of 25 to 100 nM. The same measure for `O=C(NCc1ccc(F)c(F)c1)c1cnc(N2CCN(C3CCN(Cc4ccc(Cl)cc4)CC3)CC2)c(Br)c1` [compound 253]: under 25 nM. Take `N#Cc1ccc(C(=O)N2CCC(N3CCN(c4ncc(C(=O)NCc5ccc(F)c(F)c5)cc4Br)CC3)CC2)cc1` [compound 298]: the IC50 was 25 to 100 nM.

Molecule `O=C(NCCCc1ccccc1)c1cnc(N2CCN(C3CCN(Cc4ccc(Cl)cc4)CC3)CC2)c(Cl)c1` [compound 82] came in with a half-maximal inhibitory concentration (IC50) of over 100 nM. With `O=C(NCc1ccc(Cl)cc1F)c1cnc(N2CCN(C3CCN(Cc4ccc(Br)cc4F)CC3)CC2)c(Cl)c1` [compound 27] the figure was over 100 nM; with `CC[C@H]1CN(c2ncc(C(=N)NN)cc2Cl)CCN1C1CCN(Cc2ccc(Cl)cc2F)CC1` [compound 426], 25 to 100 nM. `CC[C@H]1CN(c2ncc(C(=N)N)cc2Cl)CCN1C1CCN(C(=O)c2ccc(Cl)nc2N)CC1` [compound 442] returned an IC50 of over 100 nM. The same measure for `C[C@H]1CN(c2ncc(C(=O)NCC3CCCCC3)cc2Cl)CCN1C1CCN(Cc2ccc(Cl)cc2)CC1` [compound 228]: under 25 nM; for `O=C(NCc1ccc(C(F)(F)F)cc1)c1cnc(N2CCN(C3CCN(Cc4ccc(F)cc4)CC3)CC2)c(Cl)c1` [compound 66]: over 100 nM; for `C[C@H]1CN(c2ncc(C(=O)NCc3ccc(F)c(F)c3)cc2Cl)CCN1C1CCN(CCC(=O)c2ccc(Cl)cc2)CC1` [compound 327]: over 100 nM. With `CC(c1ccc(Cl)cc1)N1CCC(N2CCN(c3ncc(C(=O)NCc4ccc(Cl)c(Cl)c4)cc3Cl)CC2)CC1` (stereo not drawn) [compound 45] the figure was over 100 nM.

`COc1ccc(CN2CCC(N3CCN(c4ncc(C(=O)NCc5ccc(Cl)cc5)cc4Cl)CC3)CC2)cc1` [compound 103] had an IC50 of 25 to 100 nM. As for `O=C(NCc1ccc(Cl)c(Cl)c1)c1cnc(N2CCN(C3CCN(Cc4ccc(Br)cc4)CC3)CC2)c(Br)c1` [compound 284], the half-maximal inhibitory concentration (IC50) lay in the range of 25 to 100 nM. With `C[C@@H]1CN(c2ncc(C(=O)NCc3ccc(Cl)c(Cl)c3)cc2Cl)CCN1C1CCN(Cc2ccc(C#N)cc2)CC1` [compound 282] the figure was 25 to 100 nM; with `CNC(=O)c1cnc(N2CCN(C3CCN(Cc4ccc(Cl)cc4)CC3)[C@@H](C)C2)c(Br)c1` [compound 237], under 25 nM. Molecule `COc1ccc(CN2CCC(N3CCN(c4ncc(C(=O)NCc5ccc(Cl)c(Cl)c5)cc4Cl)CC3)CC2)cc1` [compound 124] came in with a 50% inhibitory concentration (IC50) of 25 to 100 nM. The same measure for `COc1ccc(CN2CCC(N3CCN(c4ncc(C(=O)NCc5cccc(Cl)c5)cc4Cl)CC3)CC2)cc1` [compound 54]: over 100 nM. The same measure for `O=C(NCc1cccc(Cl)c1)c1cnc(N2CCN(C3CCN(Cc4ccc(Cl)c(F)c4)CC3)CC2)c(Cl)c1` [compound 24]: over 100 nM.

On to `N#Cc1ccc(C(=O)N2CCC(N3CCN(c4ncc(C(=O)NCc5ccc(C(F)(F)F)cc5)cc4Cl)CC3)CC2)cc1` [compound 2], for which the 50% inhibitory concentration (IC50) was over 100 nM. The same measure for `O=C(NCc1ccccc1)c1cnc(N2CCN(C3CCN(Cc4ccc(Cl)c(F)c4)CC3)CC2)c(Cl)c1` [compound 71]: over 100 nM.

`CCNC(=O)c1cnc(N2CCN(C3CCN(Cc4ccc(Cl)cc4F)CC3)C(CC(F)(F)F)C2)c(Cl)c1` (stereo not drawn) [compound 275] gave an IC50 of 25 to 100 nM.

In turn, `CCC(=NO)c1cnc(N2CCN(C3CCN(Cc4ccc(Cl)cc4F)CC3)[C@@H](CC)C2)c(Cl)c1` [compound 444] showed a concentration for half-maximal inhibition (IC50) of over 100 nM.

`CC[C@H]1CN(c2ncc(CN/C(=N\C#N)NCC(F)(F)F)cc2Cl)CCN1C1CCN(Cc2ccc(Cl)cc2F)CC1` [compound 381] registered a concentration for half-maximal inhibition (IC50) of under 25 nM. As for `CNC(=O)c1cnc(N2CCN(C3CCN(Cc4ccc(Cl)cc4)CC3)CC2C)c(Cl)c1` (stereo not drawn) [compound 138], the IC50 lay in the range of 25 to 100 nM. The same measure for `CCNC(=O)c1cnc(N2CCN(C3CCN(C(C)(C)c4ccc(Cl)cc4)CC3)[C@@H](C)C2)c(Cl)c1` [compound 326]: over 100 nM.

The record behind these values is patent US7776862B2, “Pyridyl and phenyl substituted piperazine-piperidines with CXCR3 antagonist activity” (Schering Corporation, priority 2005, dated 2010).
